The nature of series [1]: Thermodynamic solubility of the compound at pH 7.4 measured after 48 hrs by UHPLC analysis. The format is physicochemical. Particulars: buffer, read-out: Therm_solubility.
Series [2] is described as follows: Thermodynamic solubility of the compound in FaSSIF at pH 6.5 after 48 hrs by UHPLC analysis. The format is ADME. Particulars: read-out: Therm_solubility.
Series [3] can be described thus: Half life in Sprague-Dawley rat at 1 mg/kg, iv measured after 24 hrs. The format is ADME, organism-based. The settings on record: in vivo.
Series [4] in a line: Volume of distribution at steady-state in Sprague-Dawley rat at 1 mg/kg, iv measured after 24 hrs. The class given is ADME, organism-based. The settings on record: in vivo, read-out: Vdss.
Series [5] can be described thus: Unbound plasma clearance in Sprague-Dawley rat at 1 mg/kg, iv measured after 24 hrs. The settings on record: in vivo. The class given is ADME, organism-based.
The nature of series [6]: Plasma clearance in Sprague-Dawley rat at 1 mg/kg, iv measured after 24 hrs. The class given is ADME, organism-based.
Series [7] can be described thus: Metabolic stability in rat liver microsomes assessed as unbound intrinsic clearance. The class given is ADME, Microsome.
A short description of series [8]: Metabolic stability in human liver microsomes assessed as unbound intrinsic clearance at 0.5 uM measured after 4 hrs. The format is ADME, Microsome. In general terms: Liver microsomes are vesicles of endoplasmic reticulum, rich in cytochrome P450 enzymes.
Series [9] is described as follows: Drug uptake in IL17A-induced CXCL1 secretion in C57BL/6 mouse at 10 mg/kg, iv pretreated 1 hr before IL17A challenge measured after 2 hrs. Particulars: in vivo, read-out: Drug uptake. The class given is ADME, organism-based.
Series [10] can be described thus: Oral bioavailability in mouse at 1 mg/kg. Particulars: in vivo. The format is ADME, organism-based.
The nature of series [11]: Plasma clearance in iv dosed CD-1 mouse measured after 24 hrs. The class given is ADME, organism-based.
The nature of series [12]: Unbound plasma clearance in iv dosed CD-1 mouse measured after 24 hrs. Particulars: in vivo. The class given is ADME, organism-based.
Series [13] can be described thus: Oral bioavailability in mouse at 10 mg/kg. The class given is ADME, organism-based. The settings on record: in vivo.

In brackets after ≈: the same amount, converted by molar mass.

These results are taken from ChEMBL document CHEMBL5518246, “Discovery of Small Molecule Interleukin 17A Inhibitors with Novel Binding Mode and Stoichiometry: Optimization of DNA-Encoded Chemical Library Hits to In Vivo Active Compounds” (J Med Chem, 2024).

What is called half-life is how long it takes for the measured level to halve. One may read the clearance as the rate of elimination divided by the concentration. A low value points to inefficient removal. As a reminder, the bioavailability is dose-corrected exposure relative to a reference, in per cent. Lower therefore signals little systemic uptake.

In the case of `C[C@H](NC(=O)[C@]1(NC(=O)c2cc(Cl)c(Cl)[nH]2)CO[C@H](c2ccccc2)C1)c1ncc2c(n1)CN(C1CCN(C)CC1)C2`, the solubility thermodynamic at 48 h was over 1000 µM in series [1] and 460 µg/mL (≈ 751 µM) in [2]. Besides, in series [3], the half-life is 3.6 h. Also, the Vd in series [4] is 5 L/kg. Moreover, the CL free in [5] is 102 mL/min/kg; in series [7] it was under 76.7 mL/min/kg; in [8], under 45 mL/min/kg. Also, the clearance in [6] is 18.3 mL/min/kg. Also, the concentration at 1 h in series [9] was determined as 108 ng/mL.

Regarding `C[C@H](NC(=O)[C@H](CCc1ccccc1)NC(=O)c1cc(Cl)c(Cl)[nH]1)c1cn2c(=O)n(C)cc(F)c2n1`, the solubility thermodynamic at 48 h in series [1] stood at 4.5 µM (≈ 2.4 µg/mL). In series [10], the bioavailability stood at 1.6%. Besides, the clearance in series [11] is 45 mL/min/kg. Besides, the figures for the CL free in series [8] and in series [12] were 163 mL/min/kg and 4830 mL/min/kg, respectively.

With `C[C@H](NC(=O)[C@]1(NC(=O)c2cc(Cl)c(Cl)[nH]2)CO[C@H](c2ccccc2)C1)c1cn2c(=O)n(C)cc(F)c2n1`, the solubility thermodynamic at 48 h in series [1] was found to be 0.82 µM (≈ 0.46 µg/mL). Further, the bioavailability in series [13] amounted to 22%. In series [11], the clearance was 33.3 mL/min/kg. The CL free worked out at 61.7 mL/min/kg in series [8] and 1830 mL/min/kg in series [12].
